Assay results taken from patent US10266806B2, “Stem cell-derived hepatocytes in co-culture and uses thereof” (Colorado State University Research Foundation, priority 2014, dated 2019).
“Also recorded” adds a separate entry of the source. Like-named read-outs stand apart in the source and are kept apart here.

Experiments:
CYP2C9 [1] = details: rifampin 25 μM or phenobarbital 1 mM, 4 days
CYP3A4 = details: human
CYP2C9 [2] = details: rifampin 25 μM or phenobarbital 1 mM, 4 days; remark: listed apart in the source
CYP1A2 = CYP1A2 induction in iMPCCs (7-ethoxyresorufin O-dealkylation); format: cell-based, human
iMPCCs = experiment: Drug toxicity studies: iMPCCs treated for 8 days with multiple doses; details: increasing doses
[3] = cited from earlier work
iHeps in iMPCCs [4] = tested on: iHeps in iMPCCs
[5] = negative number: withdrawn from the market; higher positive numbers: greater DILI concern; cited from earlier work
[6] = tested on: primary human hepatocytes in MPCCs; details: (ref 19); cited from earlier work
iHeps in iMPCCs [7] = experiment: Drug toxicity screening in iMPCCs (albumin, ATP, urea; binary decision and TC50)

Structure (SMILES): CCC1(c2ccccc2)C(=O)NC(=O)NC1=O [phenobarbital]
- CYP2C9 functional activity induction in iMPCCs (CYP2C9 [1]): significant increases; also recorded: induced
- CYP2C9 gene expression induction in iMPCCs (CYP2C9 [1]): inducible; also recorded: induced
- fold induction of CYP3A4 transcripts in iMPCCs relative to PHH-MPCCs (CYP3A4): 60-130%
- induction in CYP3A4 functions in iMPCCs relative to PHH-MPCCs (CYP3A4): 44-79%
- CYP2C9 induction response in iCCs (CYP2C9 [2]): induced functional activity; also recorded: severely blunted

Structure (SMILES): COc1ccc2[nH]c([S+]([O-])Cc3ncc(C)c(OC)c3C)nc2c1 (centres unmarked) [omeprazole]
- induction of iMPCC CYP1A2 activity (CYP1A2; 4 days): dose-dependent manner
- CYP1A2 fold induction in iMPCCs as % of values in PHH-MPCCs (CYP1A2; same dose and duration): ~70%

Structure (SMILES): COc1ccc2c(c1)[C@]13CCCC[C@@H]1[C@H](C2)N(C)CC3 [Dextromethorphan HBr]
- albumin production in iMPCCs (iMPCCs): minimally affected
- urea production in iMPCCs (iMPCCs): minimally affected
- Cmax ([3]; human, in vivo): 0.028 µM

Structure (SMILES): NNC(=O)c1ccncc1 [Isoniazid]
- toxicity call in iMPCCs / iHeps (iHeps in iMPCCs [4]): toxic
- DILI Sev (DILI severity scores from the LTKB of the FDA) [5]: 8
- Model predictions iCC (binary decision) (iHeps in iCCs): −
- toxicity call in iCCs (iHeps in iCCs): non-toxic
- TC50 in MPCCs Urea [6]: 4.5796 mM
- Cmax ([3]; total human plasma concentration): 76.6 µM
- TC50 in MPCCs Albumin (iHeps in iMPCCs [7]): 6.6815 mM
